Results taken from patent US12502374B2, “Composition for preventing, alleviating, or treating inflammatory disease containing isookanin or salt thereof as active ingredient” (BioSpectrum, Inc., priority 2020, dated 2025).

Tested on: COX-2 promoter
Assay: LPS-induced COX-2 promoter luciferase reporter in RAW 264.7 macrophages
Assay type: cell-based, mouse
Settings: 1, 5 and 10 ppm, LPS 100 ng/mL, FIG. 4
Procedure: Mouse macrophages (RAW 264.7) were seeded in a 24-well microplate at a density of about 2×10^5 cells per well, and cultured in an incubator for 24 hours at 37° C. under 5% CO2. The RAW264.7 cells were transfected with the COX-2 promoter luciferase reporter plasmid, and then treated with 1, 5, and 10 ppm of isookanin, and then treated with LPS (100 ng/mL). After culturing, the cell culture was harvested. Subsequently, luciferase enzyme activity was measured using a microplate reader (Sunrise, Tecan, Switzerland). Mouse macrophages not treated with isookanin and LPS were used as a negative control (−).

Q: How did the “inhibition of LPS-induced activation of COX-2 promoter” value turn out when `O=C1C[C@@H](c2ccc(O)c(O)c2)Oc2c1ccc(O)c2O` [isookanin] was run?
A: inhibiting the LPS-induced activation of COX-2 promoter in a concentration-dependent manner
